{"source": "patent US20110230465A1", "about": "“VIRAL POLYMERASE INHIBITORS” (BOEHRINGER INGLEHEIM INTERNATIONAL GMBH, priority 2009, published 2011)", "data": [{"biological_target": "T1, hepatitis C virus RNA dependent polymerase (NS5B) (Hepatitis C virus genotype 1b, UniProt P26663)", "T1 construct": "the RNA dependent RNA polymerase of HCV, specifically, the enzyme NS5B encoded by HCV", "T1 sequence (P26663 2420-3010)": "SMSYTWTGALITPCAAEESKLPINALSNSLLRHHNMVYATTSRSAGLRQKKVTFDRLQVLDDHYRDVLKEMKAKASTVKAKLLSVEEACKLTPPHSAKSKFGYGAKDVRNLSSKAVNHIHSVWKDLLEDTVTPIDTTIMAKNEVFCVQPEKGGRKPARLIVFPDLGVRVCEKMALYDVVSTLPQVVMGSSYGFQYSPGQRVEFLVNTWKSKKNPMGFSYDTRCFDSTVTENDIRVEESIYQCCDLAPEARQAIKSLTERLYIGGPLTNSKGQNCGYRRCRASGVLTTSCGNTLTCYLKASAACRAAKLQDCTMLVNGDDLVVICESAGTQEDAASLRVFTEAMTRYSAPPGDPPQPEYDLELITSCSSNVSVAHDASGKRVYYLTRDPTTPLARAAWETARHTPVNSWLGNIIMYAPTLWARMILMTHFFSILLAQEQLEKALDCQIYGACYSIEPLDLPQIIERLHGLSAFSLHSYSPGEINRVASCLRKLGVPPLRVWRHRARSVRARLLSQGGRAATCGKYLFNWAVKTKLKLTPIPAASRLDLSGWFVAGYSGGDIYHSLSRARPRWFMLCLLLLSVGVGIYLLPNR", "experiment": "Inhibition of NS5B RNA dependent RNA polymerase activity", "type": "biochemical", "details": "assay of Example 158A; read-out: IC50 (nM) Ex 158A (converted)", "experimental": "Inhibition of NS5B RNA Dependent RNA Polymerase Activity\nRepresentative compounds of the invention are tested for inhibitory activity against the hepatitis C virus RNA dependent polymerase (NS5B), using the assay described in WO2009/018657, herein incorporated by reference.", "units": {"IC50": "nM"}, "values": [{"smiles": "Cc1ccc(Cn2cnc(=O)c3cc(Oc4ccc(C(N)=O)cc4)ccc32)c(F)c1", "note": "[Compound 1030]", "IC50": 610}, {"smiles": "O=c1ncn(Cc2c(F)cc(F)cc2F)c2ccc(O[C@H]3CC[C@H](CO)CC3)cc12", "note": "[Compound 2061]", "IC50": 530}, {"smiles": "Cc1ccc(Cn2cnc(=O)c3cc(Oc4ncccc4C(F)(F)F)ccc32)c(-c2ccsc2)c1", "note": "[Compound 3052]", "IC50": 110}, {"smiles": "Cc1ccc(-c2ncccc2-n2cnc(=O)c3cc(Oc4ncccc4C(F)(F)F)ccc32)cc1", "note": "[Compound 3090]", "IC50": 130}, {"smiles": "COCCOc1ccnc(Oc2ccc3c(c2)c(=O)ncn3Cc2c(F)cc(F)cc2F)c1C(F)(F)F", "note": "[Compound 4003]", "IC50": 67}, {"smiles": "O=c1ncn(Cc2c(F)cc(F)cc2F)c2ccc(Oc3ncc(Cc4nn[nH]n4)cc3C(F)(F)F)cc12", "note": "[Compound 4020]", "IC50": 78}, {"smiles": "O=c1ncn(Cc2ccc(F)cc2F)c2ccc(Oc3ncc(Cn4nccn4)cc3C(F)(F)F)cc12", "note": "[Compound 5001]", "IC50": 240}, {"smiles": "NC(=O)Cc1cccc(Oc2ccc3c(c2)c(=O)ncn3Cc2c(F)cc(F)cc2F)c1C(F)(F)F", "note": "[Compound 6036]", "IC50": 18}, {"smiles": "Cc1ncccc1NC(=O)c1ccc(Oc2ccc3c(c2)c(=O)ncn3Cc2c(F)cc(F)cc2F)c(C(F)(F)F)c1", "note": "[Compound 6047]", "IC50": 15}, {"smiles": "CN(C)C(=O)c1cccc(Oc2ccc3c(c2)c(=O)ncn3Cc2c(F)cc(F)cc2F)c1", "note": "[Compound 7034]", "IC50": 4900}, {"smiles": "CCc1nc(=O)c2cc(Oc3ncccc3C(F)(F)F)ccc2n1-c1cccnc1-c1ccc(C)cc1F", "note": "[Compound 8011]", "IC50": 34500}, {"smiles": "CCNc1ccc(-c2cccc(Oc3ccc4c(c3)c(=O)ncn4[C@H](C)c3c(F)cc(F)cc3F)c2C(F)(F)F)cn1", "note": "[Compound 9001]", "IC50": 23}, {"smiles": "C[C@H](c1c(F)cc(F)cc1F)n1cnc(=O)c2cc(Oc3cccc(-c4ccc(N)nc4)c3C(F)(F)F)ccc21", "note": "[Compound 9003]", "IC50": 18}, {"smiles": "C[C@H](c1c(F)cc(F)cc1F)n1cnc(=O)c2cc(Oc3cccc(-c4ncc(N)cn4)c3C(F)(F)F)ccc21", "note": "[Compound 9011]", "IC50": 7.8}, {"smiles": "O=c1ncn(Cc2c(F)cc(F)cc2F)c2ccc(Oc3cccc(-c4cccc5[nH]ccc45)c3C(F)(F)F)cc12", "note": "[Compound 9016]", "IC50": 25}, {"smiles": "Cc1c(-c2cccc(Oc3ccc4c(c3)c(=O)ncn4Cc3c(F)cc(F)cc3F)c2C(F)(F)F)cnn1-c1ccccc1", "note": "[Compound 9019]", "IC50": 51}, {"smiles": "O=c1ncn(Cc2c(F)cc(F)cc2F)c2ccc(Oc3cccc(-c4ccc5nonc5c4)c3C(F)(F)F)cc12", "note": "[Compound 9020]", "IC50": 107}, {"smiles": "Cc1nc(-c2cccc(Oc3ccc4c(c3)c(=O)ncn4[C@H](C)c3c(F)cc(F)cc3F)c2C(F)(F)F)ncc1N", "note": "[Compound 9025]", "IC50": 14}, {"smiles": "N#Cc1cc(-c2cccc(Oc3ccc4c(c3)c(=O)ncn4Cc3c(F)cc(F)cc3F)c2C(F)(F)F)cnc1N", "note": "[Compound 9026]", "IC50": 28}]}, {"system": "HCV RNA replication in Huh-7 cells with a stable subgenomic HCV replicon (MP-1 cells)", "experiment": "microbe, parasite or virus in culture", "type": "cell-based", "details": "Hepatitis C virus, assay of Example 159A, read-out: EC50 (nM) Ex 159A (converted)", "units": {"EC50": "nM"}, "values": [{"smiles": "Cc1ccc(Cn2cnc(=O)c3cc(Oc4ccc(C(N)=O)cc4)ccc32)c(F)c1", "note": "[Compound 1030]", "EC50": 8500}, {"smiles": "O=c1ncn(Cc2c(F)cc(F)cc2F)c2ccc(O[C@H]3CC[C@H](CO)CC3)cc12", "note": "[Compound 2061]", "EC50": 2500}, {"smiles": "Cc1ccc(Cn2cnc(=O)c3cc(Oc4ncccc4C(F)(F)F)ccc32)c(-c2ccsc2)c1", "note": "[Compound 3052]", "EC50": 210}, {"smiles": "Cc1ccc(-c2ncccc2-n2cnc(=O)c3cc(Oc4ncccc4C(F)(F)F)ccc32)cc1", "note": "[Compound 3090]", "EC50": 82}, {"smiles": "COCCOc1ccnc(Oc2ccc3c(c2)c(=O)ncn3Cc2c(F)cc(F)cc2F)c1C(F)(F)F", "note": "[Compound 4003]", "EC50": 61}, {"smiles": "O=c1ncn(Cc2c(F)cc(F)cc2F)c2ccc(Oc3ncc(Cc4nn[nH]n4)cc3C(F)(F)F)cc12", "note": "[Compound 4020]", "EC50": 5400}, {"smiles": "O=c1ncn(Cc2ccc(F)cc2F)c2ccc(Oc3ncc(Cn4nccn4)cc3C(F)(F)F)cc12", "note": "[Compound 5001]", "EC50": 470}, {"smiles": "NC(=O)Cc1cccc(Oc2ccc3c(c2)c(=O)ncn3Cc2c(F)cc(F)cc2F)c1C(F)(F)F", "note": "[Compound 6036]", "EC50": 60}, {"smiles": "Cc1ncccc1NC(=O)c1ccc(Oc2ccc3c(c2)c(=O)ncn3Cc2c(F)cc(F)cc2F)c(C(F)(F)F)c1", "note": "[Compound 6047]", "EC50": 10}, {"smiles": "CN(C)C(=O)c1cccc(Oc2ccc3c(c2)c(=O)ncn3Cc2c(F)cc(F)cc2F)c1", "note": "[Compound 7034]", "EC50": 5700}, {"smiles": "CN(C)c1cc2c(cc1Oc1ncccc1C(F)(F)F)c(=O)ncn2Cc1ccc(F)cc1F", "note": "[Compound 8009]", "EC50": "> 10000"}, {"smiles": "CCc1nc(=O)c2cc(Oc3ncccc3C(F)(F)F)ccc2n1-c1cccnc1-c1ccc(C)cc1F", "note": "[Compound 8011]", "EC50": 4800}, {"smiles": "C[C@H](c1c(F)cc(F)cc1F)n1cnc(=O)c2cc(Oc3cccc(-c4ccc(N)nc4)c3C(F)(F)F)ccc21", "note": "[Compound 9003]", "EC50": 4}, {"smiles": "O=c1ncn(Cc2c(F)cc(F)cc2F)c2ccc(Oc3cccc(-c4cccc5[nH]ccc45)c3C(F)(F)F)cc12", "note": "[Compound 9016]", "EC50": 2.2}, {"smiles": "Cc1c(-c2cccc(Oc3ccc4c(c3)c(=O)ncn4Cc3c(F)cc(F)cc3F)c2C(F)(F)F)cnn1-c1ccccc1", "note": "[Compound 9019]", "EC50": 183}, {"smiles": "O=c1ncn(Cc2c(F)cc(F)cc2F)c2ccc(Oc3cccc(-c4ccc5nonc5c4)c3C(F)(F)F)cc12", "note": "[Compound 9020]", "EC50": 199}]}]}
